Entries after “also recorded” stand apart in the source; their conditions may differ.
Experiments:
HIV-1 [1] = test: Live-cell fluorescence imaging of cell-to-cell transmission of HIV-1, pre-treated H9 cells co-cultured with GFP-MT2 target cells; type: cell-based, Human immunodeficiency virus type 1 (HIV-1); conditions: FIG. 4C-3; for cell-to-cell spread of HIV-1, VS and syncytia formation: H9 cells pre-treated 3 hours (CCCP 10 μM, antimycin A 2.4 μM, oligomycin 2.4 μM), washed, co-cultured with GFP-MT2
Experimental: (§1) HIV-1 infected H9 cells were fluorescently labeled with MitoTracker Red CMXRos to stain mitochondria red, and with Hoechst 33342 to stain DNA blue according to the manufacturer's protocols (Molecular Probes). Uninfected MT2 target cells were labeled green by the expression of green fluorescent protein (GFP-MT2). Cells were co-cultured and imaged on a glass bottom 96-well plate (MatTek, Ashland, Mass.) in RPMI 1640 medium containing 10% heat-inactivated fetal calf serum, 2 mM L-glutamine, 100 U/ml penicillin and 100 μg/ml streptomycin (complete medium). Labeled HIV-1 infected H9 cells were washed 3 times with complete medium to remove any residual free virus and free dye. Washed cells were suspended in complete medium at a density of 5×10^5 cells/ml. 100 μl of this cell suspension, containing 50,000 cells, were plated into each well. 100,000 GFP-MT2 target cells in 100 μl were then added to each well, to give a ratio of 1:2 of infected to uninfected target cells.
Live-cell real-time images and time lapse movies were collected at 37° C., 5% CO2 using a microplate incubator, with precision temperature, humidity and CO2 controls, mounted on the microscope stage of a Leica inverted microscope equipped with an automatic power stage and an AF6000 camera. Phase contrast, blue (Hoechst 33342), green (GFP), and red (MitoTracker) channels were used for imaging. Images were collected at 0.5 min or 5 min intervals for 18-24 hours. Image analysis was performed using LCSAF software.

HIV-1 infected H9 cells = test: Cell death of HIV-1 infected H9 cells on pre-treatment with mitochondrial inhibitors; conditions: pre-treatment for 3 hours; CCCP 10 μM, antimycin A 2.4 μM, oligomycin 2.4 μM
Experimental: To verify that functional mitochondria are essential for cell-to-cell transmission of the virus, we pre-treated HIV-1 infected H9 cells with mitochondrial inhibitors including carbonyl cyanide m-chlorophenylhydrazone (CCCP, 10 μM), antimycin A (2.4 μM), and oligomycin (2.4 μM) for 3 hours [14].

HIV-1 core protein p24 = test: HIV-1 p24 assay (ELISA) in co-culture supernatants; type: cell-based, Human immunodeficiency virus type 1 (HIV-1); conditions: HIV-infected H9 cells treated with CCCP, co-cultured with MT2 target cells; supernatant
Experimental: as §1, with “cells. […]” for “cells.”
(§2) For quantitation of syncytial formation and HIV p24 production, data are means±standard deviations of four independent experiments. […]
(§3) To confirm that mitochondria from HIV infected cells serve as viral reservoirs and carry the virus into the uninfected target cells, the present inventors quantitated viral infection and replication in the co-cultures by syncytia formation and viral antigen p24 production. […]

HIV-1 [2] = test: Syncytia formation assay in co-cultures of HIV-1 infected H9 cells with MT2 target cells; type: cell-based, Human immunodeficiency virus type 1 (HIV-1); conditions: Human immunodeficiency virus 1, H9, 3 h, HIV-infected H9 cells treated with 10 μM CCCP for 3 hours, then co-cultured with MT2 target cells
Experimental: as §1, with “100 μl of this cell suspension, containing 50,000 cells, were plated into each well. 100,000 GFP-MT2 target cells in 100 μl were then added to each well, to give a ratio of 1:2 of infected to uninfected target cells.” left out
Acute HIV infection of the target cells as a result of cell-to-cell transmission of the virus was measured by syncytia formation assay. Focal syncytium formation was scored under an inverted microscope.
as §2, §3

[3] = test system: human pancreatic cancer PANC-1 cells; conditions: glucose-deprived conditions; cited from earlier work

Molecule	cell-to-cell spread of HIV-1, VS and syncytia formation (HIV-1 [1])	cell death (HIV-1 infected H9 cells)	syncytia formation in fluorescent images (HIV-1 [1]; CCCP-treated HIV-1 infected H9 cells co-cultured with GFP-MT2 target cells)	reduction of p24 expression (HIV-1 core protein p24)	inhibition at 10 µM (HIV-1 [2]) [%]	cytotoxicity [3]
antimycin A	reduced cell-to-cell spread of HIV-1 and decreased VS and syncytia formation	no cell death	–	–	–	–
CC[C@H]1/C=C/C=C/C[C@@H](C)[C@H](O)[C@@](C)(O)C(=O)[C@@H](C)[C@H](O)[C@@H](C)C(=O)[C@@H](C)[C@H](O)[C@@H](C)/C=C/C(=O)O[C@@H]2[C@H](C)[C@H](CC1)O[C@]1(CC[C@H](C)[C@H](C[C@@H](C)O)O1)[C@H]2C [oligomycin]	reduced cell-to-cell spread of HIV-1 and decreased VS and syncytia formation	no cell death	–	–	–	–
N#CC(C#N)=NNc1cccc(Cl)c1 [CCCP, carbonyl cyanide m-chlorophenylhydrazone]	reduced cell-to-cell spread of HIV-1 and decreased VS and syncytia formation	no cell death	inhibits syncytia formation; also recorded: blocked syncytia formation	about 95%	~95	–
efrapeptin F	–	–	–	–	–	preferential cytotoxicity

— US8911935B2, “Mitochondria and human immunodefiency virus type 1” (New York University, priority 2011, dated 2014)
